# Target: T1, SIRT1 (Homo sapiens, UniProt Q96EB6)
# T1 sequence (Q96EB6 1-747): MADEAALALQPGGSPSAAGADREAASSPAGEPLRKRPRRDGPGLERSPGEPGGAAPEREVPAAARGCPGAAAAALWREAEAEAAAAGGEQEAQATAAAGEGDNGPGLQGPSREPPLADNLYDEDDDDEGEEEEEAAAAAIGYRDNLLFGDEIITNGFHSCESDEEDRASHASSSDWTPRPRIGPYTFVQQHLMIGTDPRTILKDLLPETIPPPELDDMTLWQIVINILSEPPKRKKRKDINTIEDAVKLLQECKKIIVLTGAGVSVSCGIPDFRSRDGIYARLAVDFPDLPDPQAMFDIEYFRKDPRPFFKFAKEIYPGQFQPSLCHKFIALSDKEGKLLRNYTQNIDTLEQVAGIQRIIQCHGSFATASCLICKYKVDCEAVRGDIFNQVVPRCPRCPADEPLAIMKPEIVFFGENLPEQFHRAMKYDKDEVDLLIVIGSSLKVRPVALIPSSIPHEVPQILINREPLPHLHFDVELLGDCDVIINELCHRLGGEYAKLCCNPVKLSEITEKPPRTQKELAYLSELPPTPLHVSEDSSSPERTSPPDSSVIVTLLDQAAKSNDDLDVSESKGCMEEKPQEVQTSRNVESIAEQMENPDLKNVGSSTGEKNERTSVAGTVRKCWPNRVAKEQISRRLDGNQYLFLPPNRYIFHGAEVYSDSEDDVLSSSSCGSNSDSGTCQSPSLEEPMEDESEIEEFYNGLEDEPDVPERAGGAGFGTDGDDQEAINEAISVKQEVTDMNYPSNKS
# Assay: Trp mass spectrometry assay of SIRT1 activity (EC1.5, percent maximum activation)
# Format: biochemical
# Conditions: Trp mass spectrometry assay; for TRP Activity (EC1.5): EC1.5 = concentration giving 150% activation of SIRT1; for TRP MAX RESP (percent maximum fold activation): percent maximum activation of SIRT1
# Procedure, shortened: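 Sirtuin deacetylation was run with purified N-His SIRT1 and the 5TMR Trp peptide across a compound titration, stopped after 25 min by acidification, and analysed by MS for OAADPR. Endpoint lay within the linear range.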
TRP Activity (EC1.5),TRP MAX RESP (percent maximum fold activation),SMILES
A (EC1.5<1 μM),A (Fold activation ≧150%),"O=C(Nc1ccc(OC[C@H](O)CO)cn1)N1c2nc(-c3cccc(C(F)(F)F)c3)c(Cl)cc2N2CC[C@H]1C2 [Example 76, (4S)-8-chloro-N-(5-((R)-2,3-dihydroxypropoxy)pyridin-2-yl)-7-(3-(trifluoromethyl)phenyl)-3,4-dihydro-1,4-methanopyrido[2,3-b][1,4]diazepine-5(2H)-carboxamide]"
A (EC1.5<1 μM),A (Fold activation ≧150%),"O=C(Nc1ccc(OC[C@H](O)CO)nc1)N1c2nc(-c3cccc(C(F)(F)F)c3)c(Cl)cc2N2CC[C@H]1C2 [Example 77, (4S)-8-chloro-N-(6-((R)-2,3-dihydroxypropoxy)pyridin-3-yl)-7-(3-(trifluoromethyl)phenyl)-3,4-dihydro-1,4-methanopyrido[2,3-b][1,4]diazepine-5(2H)-carboxamide]"
A (EC1.5<1 μM),A (Fold activation ≧150%),"O=C(Nc1cncc(OC[C@@H](O)CO)c1)N1c2nc(-c3cccc(C(F)(F)F)c3)c(Cl)cc2N2CC[C@H]1C2 [Example 78, (4S)-8-chloro-N-(5-((S)-2,3-dihydroxypropoxy)pyridin-3-yl)-7-(3-(trifluoromethyl)phenyl)-3,4-dihydro-1,4-methanopyrido[2,3-b][1,4]diazepine-5(2H)-carboxamide]"
A (EC1.5<1 μM),A (Fold activation ≧150%),"O=C(Nc1cccc(OCCO)n1)N1c2nc(-c3cccc(C(F)(F)F)c3)c(Cl)cc2N2CC[C@H]1C2 [Example 79, (4S)-8-chloro-N-(6-(2-hydroxyethoxy)pyridin-2-yl)-7-(3-(trifluoromethyl)phenyl)-3,4-dihydro-1,4-methanopyrido[2,3-b][1,4]diazepine-5(2H)-carboxamide]"
A (EC1.5<1 μM),A (Fold activation ≧150%),"O=C(Nc1cnc(OC[C@@H](O)CO)nc1)N1c2nc(-c3cccc(C(F)(F)F)c3)c(Cl)cc2N2CC[C@H]1C2 [Example 80, (4S)-8-chloro-N-(2-((S)-2,3-dihydroxypropoxy)pyrimidin-5-yl)-7-(3-(trifluoromethyl)phenyl)-3,4-dihydro-1,4-methanopyrido[2,3-b][1,4]diazepine-5(2H)-carboxamide]"
B (EC1.5 1-25 μM),A (Fold activation ≧150%),"O=C(Nc1ccc(OC[C@@H](O)CO)cn1)N1c2nc(-c3cccc(C(F)(F)F)c3)c(Cl)cc2N2CC[C@H]1C2 [Example 81, (4S)-8-chloro-N-(5-((S)-2,3-dihydroxypropoxy)pyridin-2-yl)-7-(3-(trifluoromethyl)phenyl)-3,4-dihydro-1,4-methanopyrido[2,3-b][1,4]diazepine-5(2H)-carboxamide]"
B (EC1.5 1-25 μM),A (Fold activation ≧150%),"O=C(Nc1ncc(OC[C@H](O)CO)cn1)N1c2nc(-c3cccc(C(F)(F)F)c3)c(Cl)cc2N2CC[C@H]1C2 [Example 82, (4S)-8-chloro-N-(5-((R)-2,3-dihydroxypropoxy)pyrimidin-2-yl)-7-(3-(trifluoromethyl)phenyl)-3,4-dihydro-1,4-methanopyrido[2,3-b][1,4]diazepine-5(2H)-carboxamide]"
B (EC1.5 1-25 μM),A (Fold activation ≧150%),"O=C(Nc1ncc(OC[C@@H](O)CO)cn1)N1c2nc(-c3cccc(C(F)(F)F)c3)c(Cl)cc2N2CC[C@H]1C2 [Example 83, (4S)-8-chloro-N-(5-((S)-2,3-dihydroxypropoxy)pyrimidin-2-yl)-7-(3-(trifluoromethyl)phenyl)-3,4-dihydro-1,4-methanopyrido[2,3-b][1,4]diazepine-5(2H)-carboxamide]"
A (EC1.5<1 μM),A (Fold activation ≧150%),"Cc1cc(-c2cc(C)c3c(n2)N(C(=O)Nc2cccnc2)[C@H]2CCN3C2)ccn1 [Example 84, (4S)-9-methyl-7-(2-methylpyridin-4-yl)-N-(pyridin-3-yl)-3,4-dihydro-1,4-methanopyrido[2,3-b][1,4]diazepine-5(2H)-carboxamide]"
A (EC1.5<1 μM),A (Fold activation ≧150%),"Cc1ncc(-c2ccnc(NC(=O)N3c4nc(-c5cccc(C(F)(F)F)c5)cc(C)c4N4CC[C@H]3C4)c2)o1 [Example 86, (4S)-9-methyl-N-(4-(2-methyloxazol-5-yl)pyridin-2-yl)-7-(3-(trifluoromethyl)phenyl)-3,4-dihydro-1,4-methanopyrido[2,3-b][1,4]diazepine-5(2H)-carboxamide]"
A (EC1.5<1 μM),A (Fold activation ≧150%),"Cc1cc(-c2cccc(C(F)(F)F)c2)nc2c1N1CC[C@@H](C1)N2C(=O)Nc1ccnc(OC[C@@H](O)CO)c1 [Example 87, (4S)-N-(2-((S)-2,3-dihydroxypropoxy)pyridin-4-yl)-9-methyl-7-(3-(trifluoromethyl)phenyl)-3,4-dihydro-1,4-methanopyrido[2,3-b][1,4]diazepine-5(2H)-carboxamide]"
A (EC1.5<1 μM),A (Fold activation ≧150%),"Cc1ccc2c(NC(=O)N3c4nc(-c5cccc(C(F)(F)F)c5)c(Cl)cc4N4CC[C@H]3C4)n[nH]c2n1 [Example 88, (4S)-8-chloro-N-(6-methyl-1H-pyrazolo[3,4-b]pyridin-3-yl)-7-(3-(trifluoromethyl)phenyl)-3,4-dihydro-1,4-methanopyrido[2,3-b][1,4]diazepine-5(2H)-carboxamide]"
A (EC1.5<1 μM),A (Fold activation ≧150%),"Cc1cc2c(nc1-c1cccc(C(F)F)c1)N(C(=O)Nc1ccnc(OC[C@@H](O)CO)c1)[C@H]1CCN2C1 [Example 89, (4S)-7-(3-(difluoromethyl)phenyl)-N-(2-((S)-2,3-dihydroxypropoxy)pyridin-4-yl)-8-methyl-3,4-dihydro-1,4-methanopyrido[2,3-b][1,4]diazepine-5(2H)-carboxamide]"
B (EC1.5 1-25 μM),A (Fold activation ≧150%),"CCn1cc(-c2nc3c(cc2Cl)N2CC[C@@H](C2)N3C(=O)Nc2ccnc(OC[C@H](O)CO)c2)cn1 [Example 90, (4S)-8-chloro-N-(2-((R)-2,3-dihydroxypropoxy)pyridin-4-yl)-7-(1-ethyl-1H-pyrazol-4-yl)-3,4-dihydro-1,4-methanopyrido[2,3-b][1,4]diazepine-5(2H)-carboxamide]"
B (EC1.5 1-25 μM),A (Fold activation ≧150%),"Cc1cc(-c2nc3c(cc2C#N)N2CC[C@@H](C2)N3C(=O)Nc2ccccn2)ccn1 [Example 92, (4S)-8-cyano-7-(2-methylpyridin-4-yl)-N-(pyridin-2-yl)-3,4-dihydro-1,4-methanopyrido[2,3-b][1,4]diazepine-5(2H)-carboxamide]"
B (EC1.5 1-25 μM),A (Fold activation ≧150%),"Cc1cc(-c2nc3c(cc2Cl)N2CC[C@@H](C2)N3C(=O)Nc2cccc(OC[C@@H](O)CO)n2)ccn1 [Example 93, (4S)-8-chloro-N-(6-((S)-2,3-dihydroxypropoxy)pyridin-2-yl)-7-(2-methylpyridin-4-yl)-3,4-dihydro-1,4-methanopyrido[2,3-b][1,4]diazepine-5(2H)-carboxamide]"
C (EC1.5>25 μM),B (Fold Activation <150%),"Cc1cc(-c2nc3c(cc2Cl)N2CC[C@@H](C2)N3C(=O)Nc2ccnc(OC[C@@H](O)CO)n2)ccn1 [Example 94, (4S)-8-chloro-N-(2-((S)-2,3-dihydroxypropoxy)pyrimidin-4-yl)-7-(2-methylpyridin-4-yl)-3,4-dihydro-1,4-methanopyrido[2,3-b][1,4]diazepine-5(2H)-carboxamide]"

SMILES,TRP Activity (EC1.5),TRP MAX RESP (percent maximum fold activation)
"Cc1cc(-c2nc3c(c(C)c2C)N2CC[C@@H](C2)N3C(=O)Nc2cccnc2)ccn1 [Example 91, (4S)-8,9-dimethyl-7-(2-methylpyridin-4-yl)-N-(pyridin-3-yl)-3,4-dihydro-1,4-methanopyrido[2,3-b][1,4]diazepine-5(2H)-carboxamide]",B (EC1.5 1-25 μM),A (Fold activation ≧150%)

# Reference: patent US20170355705A1 (GlaxoSmithKline Intellectual Property (No.2) Limited, priority 2014, published 2017)
